# Laboratory results taken from patent US9695155B2, “Herbicidal substituted pyrimidinyloxy benzene compounds” (E. I. DU PONT DE NEMOURS AND COMPANY, priority 2013, dated 2017).
# Legend:
# galium = assay: Test D postemergence; assay type: in vivo, Galium aparine; conditions: Galium, post-emergence; for pest or weed control at 31 g/ha: 31 g ai/ha; for pest or weed control at 62 g/ha: 62 g ai/ha; for pest or weed control at 125 g/ha: 125 g ai/ha
# Excerpt: (§1) Seeds of plant species selected from bluegrass (annual bluegrass, Poa annua), blackgrass (Alopecurus myosuroides), canarygrass (littleseed canarygrass, Phalaris minor), chickweed (common chickweed, Stellaria media), galium (catchweed bedstraw, Galium aparine), bromegrass, downy (downy bromegrass, Bromus tectorum), field poppy (Papaver rhoeas), field violet (Viola arvensis), green foxtail (Setaria viridis), deadnettle (henbit deadnettle, Lamium amplexicaule), Italian ryegrass (Lolium multiflorum), kochia (Kochia scoparia), lambsquarters (Chenopodium album), oilseed rape (Brassica napus), pigweed (Amaranthus retroflexus), chamomile (scentless chamomile, Matricaria inodora), Russian thistle (Salsola kali), speedwell (bird's-eye speedwell, Veronica persica), spring barley (Hordeum vulgare), spring wheat (Triticum aestivum), wild buckwheat (Polygonum convolvulus), wild mustard (Sinapis arvensis), wild oat (Avena fatua), wild radish (Raphanus raphanistrum), windgrass (Apera spica-venti), winter barley (Hordeum vulgare), and winter wheat (Triticum aestivum) were planted into a silt loam soil and treated preemergence with test chemicals formulated in a non-phytotoxic solvent mixture which included a surfactant.
# (§2) At the same time, these species were planted in pots containing Redi-Earth® planting medium (Scotts Company, 14111 Scottslawn Road, Marysville, Ohio 43041) comprising spaghnum peat moss, vermiculite, wetting agent and starter nutrients and treated with postemergence applications of the test chemicals formulated in the same manner. Plants ranged in height from 2 to 18 cm (1- to 4-leaf stage). Treated plants and controls were maintained in a controlled growth environment for 7 to 21 days after which time all species were compared to controls and visually evaluated. Plant response ratings, summarized in Table D, are based on a scale of 0 to 100 where 0 is no effect and 100 is complete control. A dash (-) response means no test result.
# lambsquarters = assay: Test D preemergence; assay type: in vivo, Chenopodium album; conditions: Chenopodium album, pre-emergence; for pest or weed control at 31 g/ha: 31 g ai/ha; for pest or weed control at 62 g/ha: 62 g ai/ha; for pest or weed control at 125 g/ha: 125 g ai/ha
# Excerpt: as §1, §2
# chamomile = assay: Test D preemergence; assay type: in vivo, Matricaria inodora; conditions: Tripleurospermum inodorum, pre-emergence; for pest or weed control at 31 g/ha: 31 g ai/ha; for pest or weed control at 62 g/ha: 62 g ai/ha; for pest or weed control at 125 g/ha: 125 g ai/ha
# Excerpt: as §1, §2
# wild radish = assay: Test D preemergence; assay type: in vivo, Raphanus raphanistrum; conditions: Raphanus raphanistrum, pre-emergence; for pest or weed control at 31 g/ha: 31 g ai/ha; for pest or weed control at 62 g/ha: 62 g ai/ha; for pest or weed control at 125 g/ha: 125 g ai/ha
# Excerpt: as §1, §2
# speedwell = assay: Test D postemergence; assay type: in vivo, Veronica persica; conditions: Veronica persica, post-emergence; for pest or weed control at 31 g/ha: 31 g ai/ha; for pest or weed control at 62 g/ha: 62 g ai/ha; for pest or weed control at 125 g/ha: 125 g ai/ha
# Excerpt: as §1, §2
# windgrass = assay: Test D postemergence; assay type: in vivo, Apera spica-venti; conditions: Apera spica-venti, post-emergence; for pest or weed control at 31 g/ha: 31 g ai/ha; for pest or weed control at 62 g/ha: 62 g ai/ha; for pest or weed control at 125 g/ha: 125 g ai/ha
# Excerpt: as §1, §2
# green foxtail = assay: Test D preemergence; assay type: in vivo, Setaria viridis; conditions: Setaria viridis, pre-emergence; for pest or weed control at 31 g/ha: 31 g ai/ha; for pest or weed control at 62 g/ha: 62 g ai/ha; for pest or weed control at 125 g/ha: 125 g ai/ha
# Excerpt: as §1, §2
# bromegrass, downy = assay: Test D preemergence; assay type: in vivo, Bromus tectorum; conditions: Bromus tectorum, pre-emergence; for pest or weed control at 31 g/ha: 31 g ai/ha; for pest or weed control at 62 g/ha: 62 g ai/ha; for pest or weed control at 125 g/ha: 125 g ai/ha
# Excerpt: as §1, §2
# canarygrass = assay: Test D postemergence; assay type: in vivo, Phalaris minor; conditions: Phalaris minor, post-emergence; for pest or weed control at 31 g/ha: 31 g ai/ha; for pest or weed control at 62 g/ha: 62 g ai/ha; for pest or weed control at 125 g/ha: 125 g ai/ha
# Excerpt: as §1, §2
# [1] = scale 0 to 100 (0 no effect, 100 complete control), read-out: Plant response rating, Galium
# [2] = scale 0-100, read-out: Plant response rating, Lambsquarters
# [3] = scale 0-100, read-out: Plant response rating, Chamomile
# [4] = scale 0 (no effect) to 100 (complete control), read-out: Plant response rating, Radish, Wild
# [5] = scale 0-100, read-out: Plant response rating, Radish, Wild
# [6] = scale 0 to 100 (0 no effect, 100 complete control), read-out: Plant response rating, Speedwell
# [7] = scale 0 to 100 (0 no effect, 100 complete control), read-out: Plant response rating, Windgrass
# [8] = scale 0-100, read-out: Plant response rating, Foxtail, Green
# [9] = scale 0-100, read-out: Plant response rating, Bromegrass, Downy
# [10] = scale 0 to 100 (0 no effect, 100 complete control), read-out: Plant response rating, Canarygrass
Compound,pest or weed control at 31 g/ha (galium; [1]) [%],pest or weed control at 62 g/ha (galium; [1]) [%],pest or weed control at 125 g/ha (galium; [1]) [%],pest or weed control at 31 g/ha (lambsquarters; [2]) [%],pest or weed control at 62 g/ha (lambsquarters; [2]) [%],pest or weed control at 125 g/ha (lambsquarters; [2]) [%],pest or weed control at 31 g/ha (chamomile; [3]) [%],pest or weed control at 62 g/ha (chamomile; [3]) [%],pest or weed control at 125 g/ha (chamomile; [3]) [%],pest or weed control at 31 g/ha (wild radish; [4]) [%],pest or weed control at 62 g/ha (wild radish; [5]) [%],pest or weed control at 125 g/ha (wild radish; [5]) [%],pest or weed control at 31 g/ha (speedwell; [6]) [%],pest or weed control at 62 g/ha (speedwell; [6]) [%],pest or weed control at 125 g/ha (speedwell; [6]) [%],pest or weed control at 31 g/ha (windgrass; [7]) [%],pest or weed control at 62 g/ha (windgrass; [7]) [%],pest or weed control at 125 g/ha (windgrass; [7]) [%],pest or weed control at 31 g/ha (green foxtail; [8]) [%],pest or weed control at 62 g/ha (green foxtail; [8]) [%],also measured
"N#Cc1cccc(Oc2ncc(Cl)cn2)c1-n1cc(Br)cn1 [Compound 52, 2-(4-bromo-1H-pyrazol-1-yl)-3-[(5-chloro-2-pyrimidinyl)oxy]benzonitrile]",70,80,95,80,100,100,15,65,60,30,80,95,70,95,100,15,20,25,20,60,"pest or weed control at 250 g/ha (galium; 250 g ai/ha, scale 0 to 100 (0 no effect, 100 complete control), read-out: Plant response rating, Galium): 100%; pest or weed control at 250 g/ha (lambsquarters; 250 g ai/ha, scale 0-100, read-out: Plant response rating, Lambsquarters): 100%; pest or weed control at 250 g/ha (chamomile; 250 g ai/ha, scale 0-100, read-out: Plant response rating, Chamomile): 80%; pest or weed control at 250 g/ha (wild radish; 250 g ai/ha, scale 0-100, read-out: Plant response rating, Radish, Wild): 100%; pest or weed control at 250 g/ha (speedwell; 250 g ai/ha, scale 0 to 100 (0 no effect, 100 complete control), read-out: Plant response rating, Speedwell): 100%; pest or weed control at 250 g/ha (windgrass; 250 g ai/ha, scale 0 to 100 (0 no effect, 100 complete control), read-out: Plant response rating, Windgrass): 40%; pest or weed control at 125 g/ha (green foxtail; [8]): 100%; pest or weed control at 250 g/ha (green foxtail; 250 g ai/ha, scale 0-100, read-out: Plant response rating, Foxtail, Green): 100%; pest or weed control at 31 g/ha (bromegrass, downy; [9]): 0%; pest or weed control at 62 g/ha (bromegrass, downy; [9]): 0%; pest or weed control at 125 g/ha (bromegrass, downy; [9]): 0%; pest or weed control at 250 g/ha (bromegrass, downy; 250 g ai/ha, scale 0-100, read-out: Plant response rating, Bromegrass, Downy): 0%; pest or weed control at 31 g/ha (canarygrass; [10]): 35%; pest or weed control at 62 g/ha (canarygrass; [10]): 35%; pest or weed control at 125 g/ha (canarygrass; [10]): 50%; pest or weed control at 250 g/ha (canarygrass; 250 g ai/ha, scale 0 to 100 (0 no effect, 100 complete control), read-out: Plant response rating, Canarygrass): 60%"
"Fc1cccc(Oc2ncc(Cl)cn2)c1-n1cc(C(F)F)nn1 [Compound 141, 5-chloro-2-[2-[4-(difluoromethyl)-1H-1,2,3-triazol-1-yl]-3-fluorophenoxy]pyrimidine]",98,98,98,100,100,100,100,70,100,98,100,100,100,100,100,10,50,60,100,100,"pest or weed control at 16 g/ha (galium; 16 g ai/ha, scale 0-100, read-out: Plant response rating, Galium): 95%; pest or weed control at 16 g/ha (lambsquarters; 16 g ai/ha, scale 0 (no effect) to 100 (complete control), read-out: Plant response rating, Lambsquarters): 100%; pest or weed control at 16 g/ha (chamomile; 16 g ai/ha, scale 0 (no effect) to 100 (complete control), read-out: Plant response rating, Chamomile): 90%; pest or weed control at 16 g/ha (wild radish; 16 g ai/ha, scale 0 (no effect) to 100 (complete control), read-out: Plant response rating, Radish, Wild): 40%; pest or weed control at 16 g/ha (speedwell; 16 g ai/ha, scale 0-100, read-out: Plant response rating, Speedwell): 100%; pest or weed control at 16 g/ha (windgrass; 16 g ai/ha, scale 0-100, read-out: Plant response rating, Windgrass): 5%; pest or weed control at 16 g/ha (green foxtail; 16 g ai/ha, scale 0 (no effect) to 100 (complete control), read-out: Plant response rating, Foxtail, Green): 10%; pest or weed control at 125 g/ha (green foxtail; [8]): 100%; pest or weed control at 16 g/ha (bromegrass, downy; 16 g ai/ha, scale 0 (no effect) to 100 (complete control), read-out: Plant response rating, Bromegrass, Downy): 30%; pest or weed control at 31 g/ha (bromegrass, downy; [9]): 45%; pest or weed control at 62 g/ha (bromegrass, downy; [9]): 85%; pest or weed control at 125 g/ha (bromegrass, downy; [9]): 95%; pest or weed control at 16 g/ha (canarygrass; 16 g ai/ha, scale 0-100, read-out: Plant response rating, Canarygrass): 10%; pest or weed control at 31 g/ha (canarygrass; [10]): 25%; pest or weed control at 62 g/ha (canarygrass; [10]): 35%; pest or weed control at 125 g/ha (canarygrass; [10]): 55%"
